# Values quoted from earlier work, collected in patent US20260078132A1, “SOLID FORMS OF AN INHIBITOR OF HIF AND METHODS OF USING SAME” (ONCOSPHERIX INC., priority 2022, published 2026).
# Legend:
# [1] = biological target: T1, p300 (Homo sapiens, UniProt Q09472)
# [2] = biological target: T1, p300; remark: listed apart in the source
# T1 sequence (Q09472 whole entry, species assumed): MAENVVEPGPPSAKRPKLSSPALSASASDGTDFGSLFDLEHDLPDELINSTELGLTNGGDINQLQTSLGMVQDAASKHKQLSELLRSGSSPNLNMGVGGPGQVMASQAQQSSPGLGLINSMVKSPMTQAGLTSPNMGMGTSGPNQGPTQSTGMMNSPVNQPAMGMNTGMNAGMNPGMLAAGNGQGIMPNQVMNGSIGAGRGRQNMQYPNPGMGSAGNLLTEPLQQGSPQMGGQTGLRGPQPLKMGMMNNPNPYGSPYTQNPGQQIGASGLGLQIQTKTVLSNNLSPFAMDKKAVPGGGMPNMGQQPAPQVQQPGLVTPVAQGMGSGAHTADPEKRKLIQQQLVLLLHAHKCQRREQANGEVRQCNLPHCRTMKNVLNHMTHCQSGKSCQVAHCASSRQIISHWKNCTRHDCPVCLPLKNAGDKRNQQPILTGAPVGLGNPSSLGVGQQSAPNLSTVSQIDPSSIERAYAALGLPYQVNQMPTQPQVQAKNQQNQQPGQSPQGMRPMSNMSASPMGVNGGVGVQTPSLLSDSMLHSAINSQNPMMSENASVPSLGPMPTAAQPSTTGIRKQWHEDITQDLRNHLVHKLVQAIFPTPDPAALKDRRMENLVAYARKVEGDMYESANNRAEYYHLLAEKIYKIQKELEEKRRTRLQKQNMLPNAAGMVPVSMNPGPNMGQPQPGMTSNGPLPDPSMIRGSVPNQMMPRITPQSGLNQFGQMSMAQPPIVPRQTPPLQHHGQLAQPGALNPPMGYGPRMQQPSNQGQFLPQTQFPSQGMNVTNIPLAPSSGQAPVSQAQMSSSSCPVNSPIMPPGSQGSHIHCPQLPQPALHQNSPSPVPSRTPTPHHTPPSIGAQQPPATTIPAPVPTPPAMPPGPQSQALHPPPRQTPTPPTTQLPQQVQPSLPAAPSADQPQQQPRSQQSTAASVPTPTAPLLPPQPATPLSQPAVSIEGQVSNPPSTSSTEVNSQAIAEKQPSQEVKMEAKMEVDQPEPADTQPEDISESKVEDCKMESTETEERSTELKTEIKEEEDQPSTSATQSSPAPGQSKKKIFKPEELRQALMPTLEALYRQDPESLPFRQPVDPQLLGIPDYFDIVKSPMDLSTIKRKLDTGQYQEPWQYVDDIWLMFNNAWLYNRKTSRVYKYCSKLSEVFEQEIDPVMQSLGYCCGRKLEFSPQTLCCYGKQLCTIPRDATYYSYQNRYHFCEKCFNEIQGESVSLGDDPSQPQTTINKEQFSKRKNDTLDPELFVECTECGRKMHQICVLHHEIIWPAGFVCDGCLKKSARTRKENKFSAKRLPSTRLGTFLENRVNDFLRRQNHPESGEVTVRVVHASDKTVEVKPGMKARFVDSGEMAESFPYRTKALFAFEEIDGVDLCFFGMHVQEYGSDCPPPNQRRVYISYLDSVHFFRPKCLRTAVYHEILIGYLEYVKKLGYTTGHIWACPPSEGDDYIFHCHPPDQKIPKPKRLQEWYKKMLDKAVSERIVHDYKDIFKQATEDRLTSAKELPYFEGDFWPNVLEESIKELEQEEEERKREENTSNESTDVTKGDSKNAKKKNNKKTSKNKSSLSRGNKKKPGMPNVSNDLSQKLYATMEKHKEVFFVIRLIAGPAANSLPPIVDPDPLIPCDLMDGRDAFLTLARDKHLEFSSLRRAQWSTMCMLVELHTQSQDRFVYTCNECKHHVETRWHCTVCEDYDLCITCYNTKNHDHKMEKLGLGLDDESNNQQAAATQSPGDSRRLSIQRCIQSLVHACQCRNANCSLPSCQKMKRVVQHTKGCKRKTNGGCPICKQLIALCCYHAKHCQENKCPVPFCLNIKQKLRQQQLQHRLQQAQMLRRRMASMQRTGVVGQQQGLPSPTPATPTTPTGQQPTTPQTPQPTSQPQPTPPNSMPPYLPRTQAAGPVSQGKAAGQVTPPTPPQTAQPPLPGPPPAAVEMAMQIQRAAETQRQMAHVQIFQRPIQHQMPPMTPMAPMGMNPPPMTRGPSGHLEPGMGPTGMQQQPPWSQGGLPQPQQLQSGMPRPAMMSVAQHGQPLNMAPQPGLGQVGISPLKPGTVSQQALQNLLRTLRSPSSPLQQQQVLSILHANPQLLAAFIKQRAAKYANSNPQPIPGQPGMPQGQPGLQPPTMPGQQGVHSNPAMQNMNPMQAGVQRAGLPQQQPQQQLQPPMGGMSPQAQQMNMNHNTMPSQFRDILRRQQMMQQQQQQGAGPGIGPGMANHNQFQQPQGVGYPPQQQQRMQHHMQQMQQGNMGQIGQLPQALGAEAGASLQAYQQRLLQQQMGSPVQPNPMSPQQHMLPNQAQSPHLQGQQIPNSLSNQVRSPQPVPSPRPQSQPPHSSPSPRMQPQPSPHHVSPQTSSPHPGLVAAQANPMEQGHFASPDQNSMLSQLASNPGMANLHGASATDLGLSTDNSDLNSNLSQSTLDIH
compound,measurement,setting,value
"COc1ccc(S(=O)(=O)N(Cc2ccc3c(n2)C=CC(C)(C)O3)C2CCC2)cc1OC [Compound 9, N-Cyclobutyl-N-((2,2-dimethyl-2H-pyrano[3,2-b]pyridin-6-yl)methyl)-3,4-dimethoxybenzenesulfonamide]",binding to p300,[1],binding of Compound 9 to p300
same,pull-down of p300,[2],pull-down of p300 by Compound 9
